For orientation: inhibition means the change of the read-out against control, counted positive when it falls. One may read the IC50 as the concentration needed to halve the response being measured.

The target of assay [1] is T1, Tyrosine-protein kinase JAK3 (Homo sapiens) (UniProt P52333).
T1 sequence (whole entry): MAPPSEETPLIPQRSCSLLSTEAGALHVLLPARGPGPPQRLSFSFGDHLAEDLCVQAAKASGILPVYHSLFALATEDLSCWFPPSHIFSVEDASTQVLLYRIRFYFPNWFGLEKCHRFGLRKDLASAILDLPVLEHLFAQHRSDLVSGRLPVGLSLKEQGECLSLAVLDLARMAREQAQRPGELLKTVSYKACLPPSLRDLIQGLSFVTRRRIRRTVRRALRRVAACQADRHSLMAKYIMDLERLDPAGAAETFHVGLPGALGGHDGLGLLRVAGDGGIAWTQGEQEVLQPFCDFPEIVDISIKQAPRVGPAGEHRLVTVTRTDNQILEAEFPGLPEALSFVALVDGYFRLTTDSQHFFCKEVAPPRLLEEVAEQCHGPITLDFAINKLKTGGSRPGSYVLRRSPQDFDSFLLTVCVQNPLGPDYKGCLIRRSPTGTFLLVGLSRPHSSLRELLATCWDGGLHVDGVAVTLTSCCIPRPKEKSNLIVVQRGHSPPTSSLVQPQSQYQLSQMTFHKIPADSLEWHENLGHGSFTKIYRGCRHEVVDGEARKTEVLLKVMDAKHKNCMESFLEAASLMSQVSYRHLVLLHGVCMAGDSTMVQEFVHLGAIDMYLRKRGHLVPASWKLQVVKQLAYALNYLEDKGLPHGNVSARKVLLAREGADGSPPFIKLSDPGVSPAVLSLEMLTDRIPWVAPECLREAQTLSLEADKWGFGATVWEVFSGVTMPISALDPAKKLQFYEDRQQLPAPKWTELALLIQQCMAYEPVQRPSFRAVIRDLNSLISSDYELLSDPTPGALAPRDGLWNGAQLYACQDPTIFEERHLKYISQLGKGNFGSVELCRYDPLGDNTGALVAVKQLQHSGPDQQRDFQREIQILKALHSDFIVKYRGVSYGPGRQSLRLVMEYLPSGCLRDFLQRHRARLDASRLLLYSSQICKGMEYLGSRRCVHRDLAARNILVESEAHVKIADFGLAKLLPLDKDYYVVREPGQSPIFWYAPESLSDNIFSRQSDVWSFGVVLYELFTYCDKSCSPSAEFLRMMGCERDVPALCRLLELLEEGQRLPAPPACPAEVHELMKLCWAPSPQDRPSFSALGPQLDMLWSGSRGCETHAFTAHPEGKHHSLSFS
As to the kind of experiment: Inhibition of human N-terminal His-tagged JAK3 catalytic domain (795 to 1124 residues) expressed in baculovirus expression system using fluorescence labelled srctide as substrate at 50 times IC50 by electrophoretic mobility shift assay relative to control. On the technique in general: Mobility shift assays separate free from complexed probe on a gel.

For assay [2], the target named is T2, Receptor-type tyrosine-protein kinase FLT3 (Homo sapiens, UniProt P36888).
T2 sequence (P36888 whole entry): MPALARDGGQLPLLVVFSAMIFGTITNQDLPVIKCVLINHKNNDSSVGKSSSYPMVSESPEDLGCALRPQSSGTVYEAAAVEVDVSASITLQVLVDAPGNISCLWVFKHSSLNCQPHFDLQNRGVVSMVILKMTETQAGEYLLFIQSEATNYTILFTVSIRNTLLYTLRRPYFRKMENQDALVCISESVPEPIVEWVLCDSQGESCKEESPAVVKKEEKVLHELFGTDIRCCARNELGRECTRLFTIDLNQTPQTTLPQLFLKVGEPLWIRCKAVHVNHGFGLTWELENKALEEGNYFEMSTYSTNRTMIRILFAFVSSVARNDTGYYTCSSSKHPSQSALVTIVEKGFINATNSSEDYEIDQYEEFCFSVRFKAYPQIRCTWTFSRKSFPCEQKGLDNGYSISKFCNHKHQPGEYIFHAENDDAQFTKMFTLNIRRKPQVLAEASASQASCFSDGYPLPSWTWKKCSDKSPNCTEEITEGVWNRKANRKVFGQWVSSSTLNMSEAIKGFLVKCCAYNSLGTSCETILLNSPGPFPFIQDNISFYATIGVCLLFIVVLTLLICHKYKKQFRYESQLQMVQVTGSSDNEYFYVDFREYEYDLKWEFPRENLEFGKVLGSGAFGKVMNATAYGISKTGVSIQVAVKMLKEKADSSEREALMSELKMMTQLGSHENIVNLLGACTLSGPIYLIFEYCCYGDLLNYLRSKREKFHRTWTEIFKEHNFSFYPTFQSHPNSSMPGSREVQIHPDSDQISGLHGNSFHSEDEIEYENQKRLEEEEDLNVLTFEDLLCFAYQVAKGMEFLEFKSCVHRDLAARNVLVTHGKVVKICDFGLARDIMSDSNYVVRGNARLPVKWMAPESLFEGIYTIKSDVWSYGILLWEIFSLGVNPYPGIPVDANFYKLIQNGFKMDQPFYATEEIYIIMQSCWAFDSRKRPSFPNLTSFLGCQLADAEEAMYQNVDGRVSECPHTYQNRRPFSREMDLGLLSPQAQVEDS
Nature of the assay: Inhibition of human N-terminal GST-tagged FLT3 cytoplasmic domain (564 to 993 residues) expressed in baculovirus expression system using fluorescence labelled srctide as substrate by mobility shift assay in presence of ATP.

Assay [3] addresses Protein kinase C alpha type (Homo sapiens) (UniProt P17252). Nature of the assay: Inhibition of full length human N-terminal GST-tagged PKCalpha (1 to 672 residues) expressed in baculovirus expression system using fluorescence labelled PKC peptide substrate at 50 times IC50 by electrophoretic mobility shift assay relative to control.
Assay [4] deals with T3, Interleukin-1 receptor-associated kinase 4 (Homo sapiens) (UniProt Q9NWZ3).
T3 sequence (whole entry): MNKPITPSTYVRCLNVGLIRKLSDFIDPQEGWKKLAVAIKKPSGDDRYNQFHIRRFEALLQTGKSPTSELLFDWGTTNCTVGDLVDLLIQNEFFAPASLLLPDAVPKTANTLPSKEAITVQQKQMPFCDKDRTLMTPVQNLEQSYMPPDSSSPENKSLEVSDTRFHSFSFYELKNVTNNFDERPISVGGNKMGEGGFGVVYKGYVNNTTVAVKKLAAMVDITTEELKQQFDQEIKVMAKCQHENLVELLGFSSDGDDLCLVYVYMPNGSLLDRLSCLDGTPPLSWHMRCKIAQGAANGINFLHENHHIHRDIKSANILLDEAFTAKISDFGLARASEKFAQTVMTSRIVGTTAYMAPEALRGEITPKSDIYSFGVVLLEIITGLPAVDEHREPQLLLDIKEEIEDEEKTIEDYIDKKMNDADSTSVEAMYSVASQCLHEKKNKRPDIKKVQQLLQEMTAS
As to the kind of experiment: Inhibition of full length human N-terminal GST-tagged IRAK4 (1 to 460 residues) expressed in baculovirus expression system using fluorescence labelled IRAK1 peptide substrate at 50 times IC50 by electrophoretic mobility shift assay relative to control.

The target in assay [5] is Mitogen-activated protein kinase kinase kinase kinase 4 (Homo sapiens, UniProt O95819). Nature of the assay: Inhibition of human N-terminal GST-tagged HGK catalytic domain (1 to 328 residues) expressed in baculovirus expression system using fluorescence labelled moesin-derived peptide substrate at 50 times IC50 by electrophoretic mobility shift assay relative to control.
Mitogen-activated protein kinase kinase kinase kinase 4, sequence (O95819 2-1239 limits assumed): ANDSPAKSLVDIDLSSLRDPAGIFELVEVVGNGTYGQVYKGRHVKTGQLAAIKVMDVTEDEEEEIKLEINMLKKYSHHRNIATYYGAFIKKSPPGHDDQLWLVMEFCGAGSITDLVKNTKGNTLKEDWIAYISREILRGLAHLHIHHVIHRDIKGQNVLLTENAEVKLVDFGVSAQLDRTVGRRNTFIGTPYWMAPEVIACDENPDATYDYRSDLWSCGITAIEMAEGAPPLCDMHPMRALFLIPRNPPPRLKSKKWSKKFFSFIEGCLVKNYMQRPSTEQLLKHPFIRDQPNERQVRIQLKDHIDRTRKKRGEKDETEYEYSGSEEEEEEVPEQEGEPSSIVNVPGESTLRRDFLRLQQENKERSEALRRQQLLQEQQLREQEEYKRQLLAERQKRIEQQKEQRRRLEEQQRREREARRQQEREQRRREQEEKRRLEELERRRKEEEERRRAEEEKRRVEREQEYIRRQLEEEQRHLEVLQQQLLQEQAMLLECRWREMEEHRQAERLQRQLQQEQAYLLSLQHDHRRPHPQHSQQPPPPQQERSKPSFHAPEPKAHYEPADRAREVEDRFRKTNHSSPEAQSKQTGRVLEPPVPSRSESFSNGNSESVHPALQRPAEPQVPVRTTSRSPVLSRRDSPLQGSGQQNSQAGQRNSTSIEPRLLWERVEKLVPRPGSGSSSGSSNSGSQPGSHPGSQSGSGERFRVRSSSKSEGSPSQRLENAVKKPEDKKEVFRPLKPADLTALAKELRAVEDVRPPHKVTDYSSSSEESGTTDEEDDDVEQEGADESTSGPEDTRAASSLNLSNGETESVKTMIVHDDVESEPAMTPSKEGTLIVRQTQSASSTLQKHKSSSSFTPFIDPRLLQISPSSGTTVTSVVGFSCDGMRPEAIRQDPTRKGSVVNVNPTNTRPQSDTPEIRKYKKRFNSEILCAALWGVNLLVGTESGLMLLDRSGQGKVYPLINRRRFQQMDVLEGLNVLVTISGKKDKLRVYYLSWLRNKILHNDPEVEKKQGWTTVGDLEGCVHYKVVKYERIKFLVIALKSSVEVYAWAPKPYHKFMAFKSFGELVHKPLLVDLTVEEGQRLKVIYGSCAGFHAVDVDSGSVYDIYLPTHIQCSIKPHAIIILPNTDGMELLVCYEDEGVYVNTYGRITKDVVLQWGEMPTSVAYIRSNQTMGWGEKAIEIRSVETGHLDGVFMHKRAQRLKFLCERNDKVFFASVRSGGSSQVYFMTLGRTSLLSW

In the case of `O=C(Nc1ccc(CN2CCN(c3ccccc3)CC2)cc1)c1n[nH]c2ccccc12`, the inhibition in assay [1] is 9%; in assay [3], -0.9%; in assay [4] it was -1.9%; in assay [5], 62.8%. The IC50 in assay [2] is 9 nM.
`O=C(Nc1ccc(C(=O)N2CCN(c3ccccc3)CC2)cc1)c1n[nH]c2ccccc12`: the inhibition was 26.4% in assay [1], 10.6% in assay [3], 2.6% in assay [4] and 90.6% in assay [5]. In addition, the 50% inhibitory concentration (IC50) in assay [2] is 23 nM.
The like results for `O=C(Nc1ccccc1)c1n[nH]c2ccccc12` were, in that order, 51.9%, 2.4%, 19.7%, 92.5% and 350 nM.

Values taken from ChEMBL document CHEMBL3792292, “Development of a potent and selective FLT3 kinase inhibitor by systematic expansion of a non-selective fragment-screening hit” (Bioorg Med Chem Lett, 2016).
